Data as given in patent publication EP1224486B1, “USE OF DOUBLE-QUANTUM 1H-NMR SPECTROSCOPY FOR THE IDENTIFICATION OF LIGANDS INTERACTING WITH TARGET BIOMOLECULES” (Pharmacia Italia S.p.A., priority 1999, dated 2001).
Non-standard residues stand in square brackets, D forms with d. Residues, ends and D or L forms follow the SMILES beside them. pY = N[C@@H](Cc1ccc(OP(=O)(O)O)cc1)C(=O)O

Columns and labels:
Grb2-SH2 domain [1] = target: T1, Grb2-SH2 domain (Homo sapiens, UniProt P62993); experiment: 2D 1H double-quantum (DQ) NMR screening of compound mixtures with and without the protein; format: binding; conditions: 25°C, pH 6.2; for identification as ligand by comparison of 2D DQ spectra and 2D DQ difference spectrum: mixture 2, 300 µM each compound, 50 µM protein (6:1)
T1 construct: The SH2 domain of Grb2 was expressed in E. coli as GST fusion proteins; GST (cleaved yes); made in house; host or cells: E. coli
Description: The feasibility of the invention in identifying ligands was tested with mixtures of compounds against the Grb2-SH2 domain. […] Figure 2 illustrates the DQ fingerprint region of a compound mixture (mixture 1) recorded with the pulse sequence of Figure 1a in the absence (a) and in the presence (b) of the protein. […] The NH protein resonances are not visible in Figure 2 (b) due to their short T (SQ)/(2) [formula] and T^DQ and the lower protein concentration (50 µM). The protein aromatic resonances have a longer T (SQ)/(2) [formula] and T^DQ compared to the amide resonances and their presence in the DQ spectrum may interfere with the observation of the ligand signals. Figure 3(a) illustrates the aromatic region of the 2D relaxation weighted DQ spectrum for mixture 1. Figures 3 (b) and (c) depict the same spectral region of the 2D DQ and relaxation weighted DQ spectrum of mixture 1 in the presence of the Grb2 SH2 domain, respectively. […] The large linewidth of all the protein resonances and the antiphase character of the DQ multiplets along ω2 results in complete cancellation of the positive and negative lobes. […] Only the compound resonances that display changes in intensity or chemical shift in the presence of the protein will be visible in the difference spectrum.
All the spectra were acquired at 25°C with the pulse sequences of Figure 1 using a Varian Inova 600 MHz spectrometer equipped with a 5 mm triple-resonance inverse probe and actively shielded x, y, and z- gradient coils. The DQ spectra were collected using 8 to 32 transients for each of the 256 t1 increments (128 t1 values for both the echo and antiecho pathway selections) and with 2048 points in t2. The data were multiplied with a cosine window function in both dimensions prior to the Fourier transformation.
The excitation DQ period τ was 42 ms long and the angle β of the detection pulse was set to 45° and 135° for the antiecho and echo coherence pathway selection, respectively. The coherence selection gradients G1 to G3 were set at the magic angle using only the x and z components of the gradients. The first two PFGs applied at the beginning and end of the excitation double-quantum period were weak gradients for radiation damping suppression. The 2D spectral differencing was performed with the software provided by Varian. The scaling factor used in the examples reported here was -1. However it can be adjusted manually for allowing small variations in concentration of the protein-ligand mixture and ligand mixture solutions.

Grb2-SH2 domain [2] = experiment: 2D 1H double-quantum NMR screening of compound mixtures for ligand binding; conditions: mixture 2, each compound 300 µM, protein 50 µM (6:1), 25°C, pH 6.2
Description: From a practical point of view, the steps involved in the detection of binding are preferably the following: • a) mixing together from 1 to n chemical compounds not interacting with each other; • b) recording a two-dimensional ^1H DQ or DQC (refocussed or not) relaxation weighted DQ spectrum (preferentially version with PFG) for the said compound mixture in the absence of the target biomolecule; • c) mixing the said compound mixture with the target biomolecule where each of the molecules comprising the mixture is preferably present at a molar ratio to the target biomolecule of about 1:1 to about 20:1 • d) recording a two-dimensional ^1H DQ or DQC (refocussed or not) relaxation weighted DQ spectrum (preferentially version with PFG) for the said compound mixture in the presence of the target biomolecule; • e) comparing the spectra recorded in steps b) and d) to detect which, if any of the chemical entities of the mixture, has interacted with the target biomolecule; and, optionally • f) recording a two-dimensional ^1H DQ or DQC (refocussed or not) relaxation weighted DQ spectrum (preferentially version with PFG) for each of the compounds which have been detected in step (e) above, with and without the target protein.
The feasibility of the invention in identifying ligands was tested with mixtures of compounds against the Grb2-SH2 domain. […]

T1 sequence (P62993 60-152 limits assumed): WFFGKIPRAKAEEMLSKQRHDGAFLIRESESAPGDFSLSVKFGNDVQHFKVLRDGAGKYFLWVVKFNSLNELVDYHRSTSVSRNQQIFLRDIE

## CC(=O)N[C@@H](Cc1ccc(OP(=O)(O)O)cc1)C(=O)N[C@H](C(N)=O)C(C)C [Ac-Tyr(PO3H2)-Val-NH2] (Ac-[pY]-Val-NH2)
Grb2-SH2 domain [1]
  identification as ligand by comparison of 2D DQ spectra and 2D DQ difference spectrum: potential very weak ligand
Grb2-SH2 domain [1]; listed as compound B
  identification as ligand by comparison of 2D DQ spectra and 2D DQ difference spectrum: possible weak interaction

## Ac-(N-Me)Phe(p-CH2PO3H2)-Val-Asn-NH-CH2-CH(CH3)2
Grb2-SH2 domain [1]; mixture 1, 100 µM each compound, 50 µM protein (2:1)
  identification as ligand by comparison of 2D DQ spectra: ligand for Grb2-SH2

## Ac-Tyr-Val-Asn-Val-OH (Ac-YVNV-OH)
Grb2-SH2 domain [1]
  identification as ligand by comparison of 2D DQ spectra and 2D DQ difference spectrum: do not interact with the protein

## Ac-Tyr(PO3H2)-Val-NH-CH2-CH2-CONH2
Grb2-SH2 domain [1]
  identification as ligand by comparison of 2D DQ spectra and 2D DQ difference spectrum: potent ligand

## c1ccc2[nH]ccc2c1 [Indole, indole]
Grb2-SH2 domain [2]
  identification as ligand (2D DQ spectra and 2D DQ difference spectrum with/without protein): do not interact with the protein
